Test results: patent US20250236655A1, “PROCESS FOR THE PREPARATION OF LIRAGLUTIDE” (SHILPA PHARMA LIFESCIENCES LIMITED, priority 2024, published 2025)

Assay: storage stability of liraglutide obtained by the present process
Format: physicochemical
Conditions: liraglutide of purity greater or equal to 99.5% obtained as per the present process

stable to handle and store without any significant or measurable change in its morphology and physicochemical characteristics: more than 6 months
Substance: Liraglutide
